Results: US7772192B2, “Compositions and methods for treatment of disease with acetylated disaccharides” (The Regents of the University of California, priority 2003, dated 2010)
“And” between values parts separate entries of the source, which are not always exact repeats. Identical values can stand only once. Like-named read-outs stand apart in the source and are kept apart here. Each block holds one compound with its values, some of them ahead of it.

Key:
[1] = test system: Lewis carbohydrate antigens on cells; conditions: monosaccharide; cited from earlier work
β4GalTI [2] = conditions: cited from earlier work
U937 cells = experiment: sLe^X expression in U937 cells; type: cell-based
Text: (§1) A 4-deoxy modified acetylated disaccharide inhibits sLe^X expression in the absence of oligosaccharide priming.

LLC cells = experiment: Experimental metastasis of pretreated LLC cells; type: in vivo, mice; conditions: cells treated 5 days, 3 weeks
Procedure: (A) LLC cells were treated in culture for 4 days with peracetylated GlcNAcβ3Gal-NM or vehicle (DMSO/propylene glycol, v/v 1:1). Single-cell suspensions (2×10^5) were injected in the tail-veins of Es1(e) mice. After 3 weeks, the mice were sacrificed and the number of tumors present on the surface of the lungs was determined by visual inspection.
LLC cells were treated in culture for 5 days with 4-deoxy AcGnG-NM, AcGnG-NM or vehicle (DMSO:propylene glycol) and then a single-cell suspension (2×10^5 cells) was injected in the tail vein of mice. After 3 weeks, the number of tumors present on the surface of the lungs was determined.

mixed oligosaccharides = experiment: Oligosaccharide priming, [6-3H]Gal incorporation; type: cell-based
Text: as §1

[3] = test system: sLe^X on LS180 cell surface; experiment: ELISA with CSLEX-1 mAb of cell-surface sLe^X; type: cell-based, human; conditions: LS180 cells
[4] = test system: LS180 cells adhering to recombinant E- or P-selectin; experiment: Cell adhesion to immobilized selectins, control values given for E- and P-selectin together; type: cell-based, human
Procedure: Cell adhesion to immobilized selectins. 96-well plates were coated overnight at 4° C. with recombinant E-selectin (4 μg/ml) or P-selectin (2 μg/ml) (R & D Systems) and blocked with 1% BSA/PBS. LS180 cells were grown for 5 days with various amounts of acetylated disaccharide, harvested, labeled with Calcein AM (5 μM, Molecular Probes) in DMEM/1% FBS, and allowed to settle at room temperature on selectin-coated wells (5×10^4 cells/well). Plates were then stirred at 75 rpm for 30 min (Orbit shaker, Lab-Line Instruments) followed by immersion upside-down in a vessel filled with Hank's buffered saline solution (HBSS, Sigma), which allowed non-adherent cells to fall under gravity. St John et al., J. Immunol Methods, 170: 159-166, 1994. The wells were then washed by aspiration using HBSS. LS180 cells were less adherent to P-selectin, so the immersion step was not necessary prior to washing. […] Fluorescence was measured using a 96-well fluorimeter (CytoFluor II), and the average of triplicate measurements was determined±standard error. Cell viability was judged to be >90% by Trypan blue exclusion at the end of each experiment.
Adhesion to selectins is altered in disaccharide-treated tumor cells. Treatment of LS180 cells with AcGnG-NM was not toxic to the cells up to 100 μM based on growth curves and exclusion of Trypan blue. […]

[5] = test system: sialyl Lewis X in HL-60, LS180, murine Lewis lung carcinoma, B16 murine melanoma cells; experiment: Inhibition of sialyl Lewis X formation in cultured cells; type: cell-based
Text: The disaccharides can be acylated with, e.g., acetyl, butyryl or benzoyl groups to reduce their hydrophilicity and make them permeable to cell membranes. […] The various disaccharides described above and their acylated or aryl derivatives are logical extensions of the present invention. In addition, analogs of the above compounds in which critical hydroxyl groups are missing or alkylated would bind to glycosyltransfersase and inhibit their activity.

β4GalTI [6] = experiment: Acceptor specificity and inhibitory action of GlcNAc derivatives (β4galactosyltransferase); type: biochemical; conditions: no reference given
Text: The compounds in Table 1 were selected based on information about β4GalTI, also known as lactose synthase. The enzyme adds galactose to GlcNAc-terminated oligosaccharides on glycoproteins and glycolipids, and will produce lactose in the presence of the cofactor, α-lactalbumin (Berger et al., Biochimie., 85, 261-274, 2003). It is part of a multigene family of β4galactosyltransferases (Hennet, Cell Mol Life. Sci., 59, 1081-1095, 2002; Amado et al., Biochim. Biophys. Acta Gen. Subj., 1473, 35-53, 1999). β4GalTI has been studied kinetically, its substrate specificity has been well documented, and X-ray structures with and without UDP-Gal are available (Gastinel et al., EMBO J., 18, 3546-3557, 1999; Ramakrishnan et al., J. Mol. Biol., 310, 205-218, 2001; Ramakrishnan et al., J. Mol. Biol., 318, 491-502, 2002).
β4GalTI will act on free GlcNAc, GlcNAc-terminated oligosaccharides and GlcNAc glycosides, including GlcNAcβ3Gal-R (Table 2). […] One possibility for the discrepancy may be that the large aromatic aglycone in our compound may facilitate binding to the enzyme. […]

[7] = aromatic aglycones, read-out: Ki

Compound: CC(=O)N[C@H]1[C@@H](OCc2ccccc2)O[C@H](CO)[C@H](O)[C@@H]1O [GalNAcα-O-benzyl]
concentration needed to achieve a similar level of inhibition [1]: 1 to 5 mM

Compound: COC[C@H]1O[C@@H](OC)[C@H](NC(C)=O)[C@@H](O)[C@@H]1O [6-O-methyl-GlcNAcβ-O-Me]
Vmax (β4GalTI [2]): 1.1 nmol/min

Compound: COC1OC(CO)C(F)C(O)C1NC(C)=O (centres unmarked) [4-fluoro-GlcNAcβ-OMe]
Km (β4GalTI [2]; acceptor, unit not given): Inactive
Ki (β4GalTI [2]; result in words): No inhibition
Vmax (β4GalTI [2]; unit not given): Inactive

Compound: COC1OC(CO)C(OC)C(O)C1NC(C)=O (centres unmarked) [4-O-methyl-GlcNAcβ-O-Me]
Km (β4GalTI [2]; acceptor, unit not given): Inactive
Ki (β4GalTI [2]; result in words): No inhibition
Vmax (β4GalTI [2]; unit not given): Inactive

Compound: COC1OC(COC2OC(CO)CC(O)C2NC(C)=O)C(O)C(O)C1O (centres unmarked) [4′-deoxy-GlcNAcβ6Glcβ-OMe]
Km (β4GalTI [2]; acceptor, unit not given): Inactive
Ki (β4GalTI [2]; result in words): No inhibition

Compound: CC(=O)N[C@H]1[C@H](Oc2c(Br)ccc3ccccc23)O[C@H](CO)[C@@H](O)[C@@H]1O [GlcNAcβ-O-2-bromonaphthol]
Ki (β4GalTI [2]; [7]): 7.6 µM

Compound: 4′-deoxy-GlcNAcβ3Gal-O-NM [4-deoxy AcGnG-NM]
sLe^X expression (U937 cells): inhibit sLe^X expression
sLe^X expression (U937 cells; listed as 4-deoxy-GlcNAcβ3Gal-NM): inhibits formation of sLe^X
experimental metastasis (tumors on the surface of the lungs) (LLC cells): inhibited experimental metastasis
incorporation of [6-^3H]Gal into mixed oligosaccharides (mixed oligosaccharides): does not

Compound: CC(=O)N[C@H]1C(O)O[C@H](CO)[C@@H](O)[C@@H]1O (some centres unmarked) [GlcNAc]
Km (β4GalTI [2]; read-out: Km): 1 to 10 mM

Compound: CO[C@@H]1O[C@H](CO)[C@H](O)[C@H](O[C@@H]2O[C@H](CO)[C@@H](O)[C@H](F)[C@H]2NC(C)=O)[C@H]1O [3′-F-GlcNAcβ3Galβ-OMe]
Ki (β4GalTI [2]; read-out: Ki): 2700 µM

Compound: CC(=O)N[C@H]1[C@H](Oc2c(C)ccc3ccccc23)O[C@H](CO)[C@@H](O)[C@@H]1O [GlcNAcβ-O-2-methylnaphthol]
Ki (β4GalTI [2]; [7]): 3.5 µM

Compound: CO[C@@H]1O[C@H](C)[C@@H](O)[C@H](O)[C@H]1NC(C)=O [6-deoxy-GlcNAcβ-O-Me]
Km (β4GalTI [2]; acceptor, read-out: Km): 0.5 mM

Compound: CO[C@@H]1O[C@H](CO)[C@@H](O)C[C@H]1NC(C)=O [3-deoxy-GlcNAcβ-OMe]
Km (β4GalTI [2]; acceptor, read-out: Km): 4.2 mM

Compound: COC1OC(CO)C(S)C(O)C1NC(C)=O (centres unmarked) [4-thio-GlcNAcβ-OMe]
Km (β4GalTI [2]; acceptor, unit not given): Inactive
Ki (β4GalTI [2]; result in words): No inhibition
Vmax (β4GalTI [2]; unit not given): Inactive

Compound: CC(=O)NC1C(Oc2cccc3ccccc23)OC(CO)C(O)C1O (centres unmarked) [GlcNAcβ-O-1-naphthol]
Ki (β4GalTI [2]; [7]): 22 µM

Compound: Galβ1,3Galβ-O-naphthalenemethanol [AcGG-NM]
expression of sLe^X on the cell surface [3]: no effect
extent of adhesion normalized to cells not treated with disaccharide ([4]; E- and P-selectin, disaccharide at 50 μM): 0.95-1.1
adhesion to either selectin conjugate ([4]; LS180 cells): no effect

Compound: CO[C@@H]1O[C@H](CO)[C@H](O)[C@H](O[C@@H]2O[C@H](CO)[C@@H](O)[C@H](O)[C@H]2NC(C)=O)[C@H]1O [GlcNAcβ3Galβ-OMe]
Km (β4GalTI [2]; acceptor, read-out: Km): 1.1 mM

Compound: COC1OC(CO)CC(O)C1NC(C)=O (centres unmarked) [4-deoxy-GlcNAcβ-O-Me]
Km (β4GalTI [2]; acceptor, unit not given): Inactive
inhibition of the enzyme (β4GalT1) (β4GalTI [2]): did not inhibit
Ki (β4GalTI [2]; result in words): No inhibition
Vmax (β4GalTI [2]; unit not given): Inactive

Compound: CO[C@@H]1O[C@H](CO[C@@H]2O[C@H](CS)[C@@H](O)[C@H](O)[C@H]2NC(C)=O)[C@@H](O)[C@H](O)[C@H]1O [6′-thio-GlcNAcβ6Glcβ-OMe]
Km (β4GalTI [2]; acceptor, read-out: Km): 1.2 mM

Compound: CO[C@@H]1O[C@H](CO)[C@@H](O)[C@H](OC)[C@H]1NC(C)=O [3-O-methyl-GlcNAcβ-O-Me]
Km (β4GalTI [2]; acceptor, read-out: Km): 77 mM
Vmax (β4GalTI [2]): 2.4 nmol/min

Compound: Galβ1,4GlcNAcβ-O-naphthalenemethanol [AcGGn-NM]
formation of sialyl Lewis X [5]: inhibit the formation of sialyl Lewis X

Km (β4GalTI [6]): < 10 µM
Compound: CC(=O)N[C@H]1[C@H](O[C@H]2[C@@H](O)[C@@H](CO)O[C@@H](OCc3ccc4ccccc4c3)[C@@H]2O)O[C@H](CO)[C@@H](O)[C@@H]1O [GlcNAcβ3Galβ-O-2-NM]

Compound: CC(=O)NC1C(Oc2ccc3ccccc3c2)OC(CO)C(O)C1O (centres unmarked) [GlcNAcβ-O-2-naphthol]
Ki (β4GalTI [2]; [7]): 9.5 µM

Compound: CO[C@@H]1O[C@H](CO)[C@@H](O)[C@H](O)[C@H]1NC(C)=O [GlcNAcβ-O-Me]
Km (β4GalTI [2]; acceptor, read-out: Km): 1.3 mM and 1.8 mM and 1.5 mM

Compound: CC(=O)NC1C(OCc2ccccc2)OC(CO)C(N)C1O (centres unmarked) [4-NH2-GlcNAcβ-OBn]
Km (β4GalTI [2]; acceptor, unit not given): Inactive
Ki (β4GalTI [2]; read-out: Ki): 850 µM
Vmax (β4GalTI [2]; unit not given): Inactive

Compound: COC1OC(CO)C(O)C(OC2OC(CO)CC(O)C2NC(C)=O)C1O (centres unmarked) [4′-deoxy-GlcNAcβ3Galβ-OMe]
Km (β4GalTI [2]; acceptor, unit not given): Inactive
inhibition of the enzyme (β4GalT1) (β4GalTI [2]): did not inhibit
Ki (β4GalTI [2]; result in words): No inhibition

Compound: OC[C@@H]1C[C@H](O)[C@@H](O)C(O)O1 (some centres unmarked) [Compound 4-deoxy-Glc, 4-deoxy-Glc]
inhibition of β4GalT1 (β4GalTI [2]; in the presence of lactalbumin): weak inhibitor

Compound: COC1OC(CO)C(O)C(OC2OC(CS)C(O)C(O)C2NC(C)=O)C1O (centres unmarked) [6′-thio-GlcNAcβ3Galβ-OMe]
Km (β4GalTI [2]; acceptor, unit not given): Inactive
inhibition of the enzyme (β4GalT1) (β4GalTI [2]): weak inhibitor
Ki (β4GalTI [2]; read-out: Ki): 1000 µM
Vmax (β4GalTI [2]; unit not given): Inactive
